Test results reported in US6534524B1, “Indazole compounds and pharmaceutical compositions for inhibiting protein kinases, and methods for their use” (Agouron Pharmaceuticals, Inc., priority 1999, dated 2003).
Where two headings read alike, the source gives them in different places.

Assays:
[1] = Determination of inhibitor concentration in mouse plasma after intraperitoneal and oral dosing; format: in vivo
In short: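 Plasma levels quantified by HPLC or LC-MS using a standard curve prepared in mouse plasma, following ethyl acetate extraction with internal standard and sodium hydroxide. Sampling at 0.5, 1, 4 h (ocular bleed) and 7 h (cardiac puncture) after oral or intraperitoneal dosing.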

[2] = Human liver microsome (HLM) assay; format: in vitro ADME; settings: human liver microsomes, 5 μM test compound
Protocol: Human Liver Microsome (HLM) Assay Compound metabolism in human liver microsomes was measured by LC-MS analytical assay procedures as follows. […] (3 tubes per test compound-triplicate). […] The samples were then transferred to separate polypropylene microcentrifuge tubes and centrifuged at 14000 g for 10 min. (Fisher Micro […] M0017580). For each replicate (#1-3) at each timepoint (0 and 2 h), an aliquot sample of each test compound was combined into a single HPLC vial insert (6 total samples) for LC-MS analysis, which is described below.

[3] = target: unphosphorylated VEGF-R2Δ50 (FLVK) (Homo sapiens, UniProt P35968, DEL940-989/E990V); test: VEGF-R2 coupled spectrophotometric assay, unphosphorylated VEGF-R2Δ50 (FLVK); settings: for Ki: FLVK Ki, Table 1
Chain of unphosphorylated VEGF-R2Δ50 (FLVK) (P35968 with tags, fused parts or gaps DEL940-989/E990V limits assumed): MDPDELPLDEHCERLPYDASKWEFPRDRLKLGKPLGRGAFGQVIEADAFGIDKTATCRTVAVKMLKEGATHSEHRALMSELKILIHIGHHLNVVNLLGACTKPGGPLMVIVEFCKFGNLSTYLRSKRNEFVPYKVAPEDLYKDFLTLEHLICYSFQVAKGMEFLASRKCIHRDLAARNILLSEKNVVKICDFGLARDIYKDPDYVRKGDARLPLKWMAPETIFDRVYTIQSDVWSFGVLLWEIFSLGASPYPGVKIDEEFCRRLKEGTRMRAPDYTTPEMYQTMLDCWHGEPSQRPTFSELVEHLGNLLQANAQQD

[4] = system: human umbilical vein endothelial cells (HUVEC); test: HUVEC proliferation assay (VEGF-stimulated, MTT); format: cell-based; settings: Homo sapiens, HUVEC; read-out: HUVEC IC50
[5] = IP, 25 mg/kg, vehicle PEG400:H2O pH 2.3 30:70
[6] = PO, 50 mg/kg, vehicle PEG400:H2O pH 2.3 30:70
[7] = female, IP, 25 mg/kg, vehicle PEG400:H2O pH 2.3 30:70, read-out: Cmin (7 hr conc.)
[8] = female, PO, 50 mg/kg, vehicle PEG400:H2O pH 2.3 30:70, read-out: Cmin (7 hr conc.)
[9] = PO, 25 mg/kg, vehicle PEG400:H2O pH 2.3 30:70
[10] = female, PO, 25 mg/kg, vehicle PEG400:H2O pH 2.3 30:70, read-out: Cmin (7 hr conc.)
[11] = IP, 25 mg/kg, vehicle PEG400:H2O pH 2.3 60:40
[12] = PO, 50 mg/kg, vehicle PEG400:H2O pH 2.3 60:40
[13] = female, IP, 25 mg/kg, vehicle PEG400:H2O pH 2.3 60:40, read-out: Cmin (7 hr conc.)
[14] = female, PO, 50 mg/kg, vehicle PEG400:H2O pH 2.3 60:40, read-out: Cmin (7 hr conc.)

Cc1ccc(CNC(=O)c2ccccc2Sc2ccc3c(/C=C/c4ccccn4)n[nH]c3c2)o1 [Example 35(h), 6-[2-((5-Methylfur-2-yl)methylcarbamoyl)phenylsulfanyl]-3-E-[2-(pyridin-2-yl)ethenyl]-1H-indazole]
AUClast [1, 5]: 59 ng·h/mL
plasma half-life (T1/2) [1, 5]: 1.5 h
AUClast [1, 6]: 26 ng·h/mL
Cmax [1, 6]: 7 ng/mL
concentration at 7 h [1, 7]: 1 ng/mL
concentration at 7 h [1, 8]: 2 ng/mL
% remain (HLM, 2 h) [2]: 9%

O=C(Cc1cc(F)cc(F)c1)Nc1cccc(C(=O)c2ccc3c(/C=C/c4ccccn4)n[nH]c3c2)c1 [Example 41(f), 6-[3-(3,5-Difluorophenylacetamido)benzoyl]-3-E-[2-(pyridin-2-yl)ethenyl]-1H-indazole]
% remain (HLM, 2 h) [2]: 59%

CCONC(=O)c1cccc(F)c1Sc1ccc2c(/C=C/c3ccccn3)n[nH]c2c1 [Example 37(a), 6-[6-Fluoro-2-(ethoxycarbamoyl)phenylsulfanyl]-3-E-[2-(pyridin-2-yl)ethenyl]-1H-indazole]
% remain (HLM, 2 h) [2]: 21%

CC(C)=CC(=O)Nc1cccc(C(=O)c2ccc3c(/C=C/c4ccccn4)n[nH]c3c2)c1 [Example 41(dd), 6-[3(3,3-Dimethylacrylamido)benzoyl]-3-E-[2-(pyridin-2-yl)ethenyl]-1H-indazole]
AUClast [1, 9]: 654 ng·h/mL
plasma half-life (T1/2) [1, 9]: 0.8 h
concentration at 7 h [1, 10]: 1 ng/mL
% remain (HLM, 2 h) [2]: 7%

CCNC(=O)c1ccccc1Sc1ccc2c(/C=C/c3ccccn3)n[nH]c2c1 [Example 35(x), 6-[2-(Ethylcarbamoyl)phenylsulfanyl]-3-E-[2-(pyridin-2-yl)ethenyl]-1H-indazole]
AUClast [1, 5]: 951 ng·h/mL
plasma half-life (T1/2) [1, 5]: 3.2 h
AUClast [1, 6]: 3516 ng·h/mL
plasma half-life (T1/2) [1, 6]: 0.9 h
concentration at 7 h [1, 7]: 48 ng/mL
concentration at 7 h [1, 8]: 16 ng/mL
% remain (HLM, 2 h) [2]: 37%

O=C(c1cccc(NC(=O)c2ccccn2)c1)c1ccc2c(/C=C/c3ccccc3)n[nH]c2c1 [Example 19(k), 6-[3-(Pyridin-2-ylcarboxamido)benzoyl]-3-E-styryl-1H-indazole]
AUClast [1, 11]: 428 ng·h/mL
Cmax [1, 11]: 149 ng/mL
plasma half-life (T1/2) [1, 11]: 2.2 h
AUClast [1, 12]: 19 ng·h/mL
Cmax [1, 12]: 8 ng/mL
plasma half-life (T1/2) [1, 12]: 2.2 h
concentration at 7 h [1, 13]: 15 ng/mL
concentration at 7 h [1, 14]: 4 ng/mL
% remain (HLM, 2 h) [2]: 58%

COc1cccc(C(=O)Nc2cccc(C(=O)c3ccc4c(/C=C/c5ccccn5)n[nH]c4c3)c2)c1 [Example 41(bb), 6-[3-(3-Methoxybenzamido)benzoyl]-3-E-[2-(pyridin-2-yl)ethenyl]-1H-indazole]
AUClast [1, 6]: 2178 ng·h/mL
Cmax [1, 6]: 596 ng/mL
plasma half-life (T1/2) [1, 6]: 2.0 h
concentration at 7 h [1, 8]: 75 ng/mL
% remain (HLM, 2 h) [2]: 110%

COc1cccc(CNC(=O)c2ccccc2Sc2ccc3c(/C=C/c4ccccn4)n[nH]c3c2)c1 [Example 35(aa)]
AUClast [1, 9]: 4036 ng·h/mL
plasma half-life (T1/2) [1, 9]: 2.1 h
concentration at 7 h [1, 10]: 106 ng/mL
% remain (HLM, 2 h) [2]: 15%

C=C(C)CNC(=O)c1ccccc1Sc1ccc2c(/C=C/c3ccccn3)n[nH]c2c1 [Example 35(ee), 6-[2-(2-Methyl-2-propenylcarbamoyl)phenylsulfanyl]-3-E-[2-(pyridin-2-yl)ethenyl]-1H-indazole]
AUClast [1, 5]: 546 ng·h/mL
plasma half-life (T1/2) [1, 5]: 1.5 h
AUClast [1, 9]: 157 ng·h/mL
plasma half-life (T1/2) [1, 9]: 14.6 h
concentration at 7 h [1, 7]: 2 ng/mL
concentration at 7 h [1, 10]: 9 ng/mL
% remain (HLM, 2 h) [2]: 13%

O=C(NC1CCC1)c1ccccc1Sc1ccc2c(/C=C/c3ccccn3)n[nH]c2c1 [Example 35(c), 6-[2-(Cyclobutylcarbamoyl)phenylsulfanyl]-3-E-[2-(pyridin-2-yl)ethenyl]-1H-indazole]
AUClast [1, 5]: 9408 ng·h/mL
Cmax [1, 5]: 1976 ng/mL
plasma half-life (T1/2) [1, 5]: 3.2 h
AUClast [1, 6]: 4744 ng·h/mL
plasma half-life (T1/2) [1, 6]: 4.9 h
concentration at 7 h [1, 7]: 465 ng/mL
concentration at 7 h [1, 8]: 321 ng/mL
% remain (HLM, 2 h) [2]: 17%

CNC(=O)c1ccccc1Nc1ccc2c(/C=C/c3ccccn3)n[nH]c2c1 [Example 39(a), 6-[2-(Methylcarbamoyl)phenylamino]-3-E-[2-(pyridin-2-yl)ethenyl]-1H-indazole]
plasma half-life (T1/2) [1, 9]: 1.4 h
AUC(0-t) ([1]; female, PO, 25 mg/kg, vehicle PEG400:H2O pH 2.3 30:70): > 14800 ng·h/mL
Cmax ([1]; female, PO, 25 mg/kg, vehicle PEG400:H2O pH 2.3 30:70, read-out: Cmax): > 4000 ng/mL
concentration at 7 h [1, 10]: 219 ng/mL
inhibition at 0.05 µM ([3]; read-out: FLVK % inhibition): 53%
IC50 [4]: 1.4 nM

Cc1cc(C(=O)Nc2cccc(Oc3ccc4c(/C=C/c5ccccn5)n[nH]c4c3)c2)nn1C [Example 31(b), 6-[3-((1,5-Dimethyl-1H-pyrazol-3-yl)carboxamido)phenoxy]-3-E-[2-(pyridin-2-yl)ethenyl]-1H-indazole]
plasma half-life (T1/2) [1, 5]: 1.7 h
AUClast [1, 6]: 2071 ng·h/mL
plasma half-life (T1/2) [1, 6]: 1.0 h
AUC(0-t) ([1]; female, IP, 25 mg/kg, vehicle PEG400:H2O pH 2.3 30:70): > 7040 ng·h/mL
concentration at 7 h [1, 7]: 177 ng/mL
concentration at 7 h [1, 8]: 15 ng/mL
Ki [3]: < 0.1 nM

O=C(NCc1ccccc1F)c1ccccc1Sc1ccc2c(/C=C/c3ccccn3)n[nH]c2c1 [Example 35(f)]
% remain (HLM, 2 h) [2]: 15%

C#CCNC(=O)c1ccccc1Sc1ccc2c(/C=C/c3ccccn3)n[nH]c2c1 [Example 35(cc), 6-[2-(2-Propynylcarbamoyl)phenylsulfanyl]-3-E-[2-(pyridin-2-yl)ethenyl]-1H-indazole]
AUClast [1, 5]: 2223 ng·h/mL
plasma half-life (T1/2) [1, 5]: 1.4 h
AUClast [1, 6]: 1718 ng·h/mL
plasma half-life (T1/2) [1, 6]: 0.9 h
concentration at 7 h [1, 7]: 6 ng/mL
concentration at 7 h [1, 8]: 5 ng/mL
% remain (HLM, 2 h) [2]: 31%

O=C(Nc1cccc(C(=O)c2ccc3c(/C=C/c4ccccn4)n[nH]c3c2)c1)c1ccncc1 [Example 41(b), 6-[3-(Pyridin-4-ylcarboxamido)benzoyl]-3-E-[2-(pyridin-2-yl)ethenyl]-1H-indazole]
plasma half-life (T1/2) [1, 11]: 4.7 h
AUClast [1, 12]: 759 ng·h/mL
plasma half-life (T1/2) [1, 12]: 1.1 h
AUC(0-t) ([1]; female, IP, 25 mg/kg, vehicle PEG400:H2O pH 2.3 60:40): > 5870 ng·h/mL
Cmax ([1]; female, IP, 25 mg/kg, vehicle PEG400:H2O pH 2.3 60:40, read-out: Cmax): > 1000 ng/mL
concentration at 7 h [1, 13]: 412 ng/mL
concentration at 7 h [1, 14]: 6 ng/mL
Ki [3]: 0.26 nM

O=C(Nc1cccc(Oc2ccc3c(/C=C/c4ccccc4)n[nH]c3c2)c1)c1ccccc1 [Example 4(a), N-[3-(3-Styryl-1H-indazol-6-yloxy)-phenyl]-benzamide]
% remain (HLM, 2 h) [2]: 35%

C=CCNC(=O)c1ccccc1Sc1ccc2c(/C=C/c3ccccn3)n[nH]c2c1 [Example 35(u), 6-[2-(Allylcarbamoyl)phenylsulfanyl]-3-E-[2-(pyridin-2-yl)ethenyl]-1H-indazole]
% remain (HLM, 2 h) [2]: 27%

O=C(NCc1ccco1)c1ccccc1Sc1ccc2c(/C=C/c3ccccn3)n[nH]c2c1 [Example 35(bb), 6-[2-((fur-2-yl)Methylcarbamoyl)phenylsulfanyl]-3-E-[2-(pyridin-2-yl)ethenyl]-1H-indazole]
% remain (HLM, 2 h) [2]: 8%

O=C(N[C@@H]1C[C@H]1c1ccccc1)c1ccccc1Sc1ccc2c(/C=C/c3ccccn3)n[nH]c2c1 (racemic) [Example 34]
% remain (HLM, 2 h) [2]: 28%

O=C(Nc1cccc(C(=O)c2ccc3c(-c4nc5cccnc5[nH]4)n[nH]c3c2)c1)c1ccccc1 [Example 42(d), 6-(3-Benzaniidobenzoyl)-3-(3H-imidazo[4,5-b]pyridin-2-yl)-1H-indazole]
AUClast [1, 11]: 1774 ng·h/mL
plasma half-life (T1/2) [1, 11]: 1.4 h
AUClast [1, 12]: 46 ng·h/mL
plasma half-life (T1/2) [1, 12]: BLQ
concentration at 7 h [1, 13]: 31 ng/mL
concentration at 7 h [1, 14]: 18 ng/mL
Ki [3]: 1.7 nM

CC(=O)Nc1cccc(Sc2ccc3c(/C=C/c4ccccc4)n[nH]c3c2)c1 [Example 20(a), 6-(3-Acetamido-phenylsulfanyl)-3-styryl-1H-indazole]
% remain (HLM, 2 h) [2]: 52%

COc1cc(C(=O)Nc2cccc(C(=O)c3ccc4c(/C=C/c5ccccn5)n[nH]c4c3)c2)cc(Cl)n1 [Example 41(u), 6-[3-((2-Chloro-6-methoxypyridin-4-yl)carboxanido)benzoyl]-3-E-[2-(pyridin-2-yl)ethenyl]-1H-indazole]
AUClast [1, 9]: 875 ng·h/mL
Cmax [1, 9]: 224 ng/mL
plasma half-life (T1/2) [1, 9]: 5.6 h
concentration at 7 h [1, 10]: 51 ng/mL
Ki [3]: 0.08 nM
